Measured values reported in patent US9708334B2, “Substituted 2,4,5,6-tetrahydropyrrolo[3,4-c]pyrazole and 4,5,6,7-tetrahydro-2H-pyrazolo[4,3-c]pyridine compounds as GlyT1 inhibitors” (DART NEUROSCIENCE (CAYMAN) LTD., priority 2014, dated 2017).

Biological target: T1, GlyT1 (Homo sapiens, UniProt P48067)
T1 construct: expressed in transfected cells
T1 sequence (P48067 1-706): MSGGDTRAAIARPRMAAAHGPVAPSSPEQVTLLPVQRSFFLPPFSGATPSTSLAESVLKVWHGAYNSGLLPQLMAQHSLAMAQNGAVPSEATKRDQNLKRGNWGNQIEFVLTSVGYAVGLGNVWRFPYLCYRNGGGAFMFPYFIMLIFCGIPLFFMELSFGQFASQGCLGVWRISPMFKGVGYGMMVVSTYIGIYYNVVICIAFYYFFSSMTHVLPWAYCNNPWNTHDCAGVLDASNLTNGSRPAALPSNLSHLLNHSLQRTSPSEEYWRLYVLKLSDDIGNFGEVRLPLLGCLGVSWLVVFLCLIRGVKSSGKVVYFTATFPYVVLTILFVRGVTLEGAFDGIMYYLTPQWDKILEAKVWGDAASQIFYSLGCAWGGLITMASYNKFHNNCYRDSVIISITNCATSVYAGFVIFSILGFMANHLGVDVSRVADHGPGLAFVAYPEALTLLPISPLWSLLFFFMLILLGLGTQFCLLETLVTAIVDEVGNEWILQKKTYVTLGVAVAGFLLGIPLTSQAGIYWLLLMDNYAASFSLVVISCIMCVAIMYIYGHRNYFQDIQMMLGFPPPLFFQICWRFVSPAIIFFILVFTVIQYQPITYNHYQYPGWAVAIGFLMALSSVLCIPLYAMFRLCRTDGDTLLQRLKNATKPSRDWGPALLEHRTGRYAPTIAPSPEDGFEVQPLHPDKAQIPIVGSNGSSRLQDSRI
Assay: Glycine Transporter 1 (GlyT1) uptake assay, scintillation proximity assay of [14C]-glycine uptake
Format: cell-based
Details: SPA, four parameter logistic fit, read-out: GlyT1 (pIC50) (converted)
Method in brief: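 [14C]-glycine uptake read by scintillation proximity on a plate counter. IC50 from four-parameter logistic fit of dose-response data.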

| IC50 [nM] | Structure (SMILES) |
| --- | --- |
| 1000 to 10000 | N#Cc1ccc(C2CCC2)c(C(=O)N2CCc3nn(-c4ccccc4)cc3C2)c1F [Example 180, 4-Cyclobutyl-2-fluoro-3-{2-phenyl-2H 4H 5H 6H 7H-pyrazolo[4,3-c]pyridine-5-carbonyl}benzonitrile] |
| 1000 to 10000 | CC(Oc1ccc(C#N)cc1C(=O)N1CCc2nn(-c3ccc(F)cc3)cc2C1)C(F)(F)F (stereo not drawn) [Example 181, 3-[2-(4-Fluorophenyl)-2H 4H 5H 6H 7H-pyrazolo[4,3-c]pyridine-5-carbonyl]-4-[(1 1 1-trifluoropropan-2-yl)oxy]benzonitrile] |
| 1000 to 10000 | CC(Oc1ccc(C#N)c(Cl)c1C(=O)N1CCc2c(c(C(F)(F)F)nn2C)C1)C(F)(F)F (stereo not drawn) [Example 182, 2-Chloro-3-[1-methyl-3-(trifluoromethyl)-1H 4H 5H 6H 7H-pyrazolo[4,3-c]pyridine-5-carbonyl]-4-[(1 1 1-trifluoropropan-2-yl)oxy]benzonitrile] |
| > 10000 | CC(Oc1ccc(C#N)c(Cl)c1C(=O)N1CCc2[nH]ncc2C1)C(F)(F)F (stereo not drawn) [Example 183, 2-Chloro-3-{1H 4H 5H 6H 7H-pyrazolo[4,3-c]pyridine-5-carbonyl}-4-[(1 1 1-trifluoropropan-2-yl)oxy]benzonitrile] |
| 1000 to 10000 | CCOc1c2c(nn1-c1ccc(F)cc1)CCN(C(=O)c1c(OC(C)C(F)(F)F)ccc(C#N)c1Cl)C2 (stereo not drawn) [Example 184, 2-Chloro-3-[3-ethoxy-2-(4-fluorophenyl)-2H 4H 5H 6H 7H-pyrazolo[4,3-c]pyridine-5-carbonyl]-4-[(1 1 1-trifluoropropan-2-yl)oxy]benzonitrile] |
| < 100 | CC(Oc1ccc(C#N)c(Cl)c1C(=O)N1Cc2cnn(-c3ccc(F)cc3)c2C(C)(C)C1)C(F)(F)F (stereo not drawn) [Example 185, 2-Chloro-3-[1-(4-fluorophenyl)-7 7-dimethyl-1H 4H 5H 6H 7H-pyrazolo[4,3-c]pyridine-5-carbonyl]-4-[(1 1 1-trifluoropropan-2-yl)oxy]benzonitrile] |
| 1000 to 10000 | CC(Oc1ccc(C#N)c(Cl)c1C(=O)N1CCc2nn(C)c(C(F)(F)F)c2C1)C(F)(F)F (stereo not drawn) [Example 186, 2-Chloro-3-[2-methyl-3-(trifluoromethyl)-2H 4H 5H 6H 7H-pyrazolo[4,3-c]pyridine-5-carbonyl]-4-[(1 1 1-trifluoropropan-2-yl)oxy]benzonitrile] |
| 100 to 1000 | N#Cc1ccc(C2(F)CCCC2)c(C(=O)N2CCc3nn(-c4ccccc4)cc3C2)c1F [Example 187, 2-Fluoro-4-(1-fluorocyclopentyl)-3-{2-phenyl-2H 4H 5H 6H 7H-pyrazolo[4,3-c]pyridine-5-carbonyl}benzonitrile] |
| 100 to 1000 | N#Cc1ccc(C2(F)CCCC2)c(C(=O)N2CCc3nn(-c4ccc(F)cc4)cc3C2)c1F [Example 188, 2-Fluoro-4-(1-fluorocyclopentyl)-3-[2-(4-fluorophenyl)-2H 4H 5H 6H 7H-pyrazolo[4,3-c]pyridine-5-carbonyl]benzonitrile] |
| 100 to 1000 | Cc1c2c(nn1-c1ccc(F)cc1)CCN(C(=O)c1c(OC(C)C(F)(F)F)ccc(C#N)c1Cl)C2 (stereo not drawn) [Example 189, 2-Chloro-3-[2-(4-fluorophenyl)-3-methyl-2H 4H 5H 6H 7H-pyrazolo[4,3-c]pyridine-5-carbonyl]-4-[(1 1 1-trifluoropropan-2-yl)oxy]benzonitrile] |
| 100 to 1000 | Cc1nn(-c2ccc(F)cc2)c2c1CN(C(=O)c1c(OC(C)C(F)(F)F)ccc(C#N)c1Cl)CC2 (stereo not drawn) [Example 190, 2-Chloro-3-[1-(4-fluorophenyl)-3-methyl-1H 4H 5H 6H 7H-pyrazolo[4,3-c]pyridine-5-carbonyl]-4-[(1 1 1-trifluoropropan-2-yl)oxy]benzonitrile] |
| 1000 to 10000 | CC(Oc1ccc(C#N)c(Cl)c1C(=O)N1Cc2cn(-c3ccc(F)cc3)nc2C(C)(C)C1)C(F)(F)F (stereo not drawn) [Example 191, 2-Chloro-3-[2-(4-fluorophenyl)-7 7-dimethyl-2H 4H 5H 6H 7H-pyrazolo[4,3-c]pyridine-5-carbonyl]-4-[(1 1 1-trifluoropropan-2-yl)oxy]benzonitrile] |
| 1000 to 10000 | COc1c(C#N)ccc(OC(C)C(F)(F)F)c1C(=O)N1Cc2cn(-c3ccc(F)cc3)nc2C(C)(C)C1 (stereo not drawn) [Example 192, 3-[2-(4-Fluorophenyl)-7 7-dimethyl-2H 4H 5H 6H 7H-pyrazolo[4,3-c]pyridine-5-carbonyl]-2-methoxy-4-[(1 1 1-trifluoropropan-2-yl)oxy]benzonitrile] |
| 100 to 1000 | CC(Oc1ccc(C#N)c(Cl)c1C(=O)N1CCc2nn(-c3ccccc3)cc2C1)C(F)(F)F (stereo not drawn) [Example 193, 2-Chloro-3-{2-phenyl-2H 4H 5H 6H 7H-pyrazolo[4,3-c]pyridine-5-carbonyl}-4-[(1 1 1-trifluoropropan-2-yl)oxy]benzonitrile] |
| 100 to 1000 | COc1c(C#N)ccc(OC(C)C(F)(F)F)c1C(=O)N1CCc2nn(-c3ccc(F)cc3F)cc2C1 (stereo not drawn) [Example 194, 3-[2-(2 4-Difluorophenyl)-2H 4H 5H 6H 7H-pyrazolo[4,3-c]pyridine-5-carbonyl]-2-methoxy-4-[(1 1 1-trifluoropropan-2-yl)oxy]benzonitrile] |
| 100 to 1000 | CC(Oc1ccc(C#N)c(Cl)c1C(=O)N1CCc2c(cnn2Cc2ccccc2)C1)C(F)(F)F (stereo not drawn) [Example 195, 3-{1-Benzyl-1H 4H 5H 6H 7H-pyrazolo[4,3-c]pyridine-5-carbonyl}-2-chloro-4-[(1 1 1-trifluoropropan-2-yl)oxy]benzonitrile] |
| 100 to 1000 | CC(Oc1ccc(C(N)=O)c(Cl)c1C(=O)N1CCc2nn(-c3ccc(F)cc3)cc2C1)C(F)(F)F (stereo not drawn) [Example 196, 2-Chloro-3-[2-(4-fluorophenyl)-2H 4H 5H 6H 7H-pyrazolo[4,3-c]pyridine-5-carbonyl]-4-[(1 1 1-trifluoropropan-2-yl)oxy]benzamide] |
| > 10000 | CC(Oc1ccc(C#N)c(Cl)c1C(=O)N1CCc2nn(-c3ccc(F)cc3)c(O)c2C1)C(F)(F)F (stereo not drawn) [Example 197, 2-Chloro-3-[2-(4-fluorophenyl)-3-hydroxy-2H 4H 5H 6H 7H-pyrazolo[4,3-c]pyridine-5-carbonyl]-4-[(1 1 1-trifluoropropan-2-yl)oxy]benzonitrile] |
| < 100 | COc1c(S(C)(=O)=O)ccc(OC(C)C(F)(F)F)c1C(=O)N1CCc2nn(-c3ccc(F)cc3)cc2C1 (stereo not drawn) [Example 198, 2-(4-Fluorophenyl)-5-{3-methanesulfonyl-2-methoxy-6-[(1 1 1-trifluoropropan-2-yl)oxy]benzoyl}-2H 4H 5H 6H 7H-pyrazolo[4,3-c]pyridine] |
| 1000 to 10000 | N#Cc1ccc(C2(F)CCOCC2)c(C(=O)N2CCc3nn(-c4ccc(F)cc4)cc3C2)c1F [Example 199, 2-Fluoro-4-(4-fluorooxan-4-yl)-3-[2-(4-fluorophenyl)-2H 4H 5H 6H 7H-pyrazolo[4,3-c]pyridine-5-carbonyl]benzonitrile] |
| 1000 to 10000 | CC(Oc1ccc(C(=O)N(C)C)c(Cl)c1C(=O)N1CCc2nn(-c3ccc(F)cc3)cc2C1)C(F)(F)F (stereo not drawn) [Example 200, 2-Chloro-3-[2-(4-fluorophenyl)-2H 4H 5H 6H 7H-pyrazolo[4,3-c]pyridine-5-carbonyl]-N N-dimethyl-4-[(1 1 1-trifluoropropan-2-yl)oxy]benzamide] |
| 100 to 1000 | CC(Oc1ccc(C#N)c(Cl)c1C(=O)N1CCc2nn(-c3ccc(F)cn3)cc2C1)C(F)(F)F (stereo not drawn) [Example 201, 2-Chloro-3-[2-(5-fluoropyridin-2-yl)-2H 4H 5H 6H 7H-pyrazolo[4,3-c]pyridine-5-carbonyl]-4-[(1 1 1-trifluoropropan-2-yl)oxy]benzonitrile] |
| 100 to 1000 | COc1c(C#N)ccc(OC(C)C(F)(F)F)c1C(=O)N1CCc2nn(-c3ccc(F)cn3)cc2C1 (stereo not drawn) [Example 202, 3-[2-(5-Fluoropyridin-2-yl)-2H 4H 5H 6H 7H-pyrazolo[4,3-c]pyridine-5-carbonyl]-2-methoxy-4-[(1 1 1-trifluoropropan-2-yl)oxy]benzonitrile] |
| 1000 to 10000 | CC(Oc1ccc(C#N)c(Cl)c1C(=O)N1CCc2nn(C)cc2C1)C(F)(F)F (stereo not drawn) [Example 203, 2-Chloro-3-{2-methyl-2H 4H 5H 6H 7H-pyrazolo[4,3-c]pyridine-5-carbonyl}-4-[(1 1 1-trifluoropropan-2-yl)oxy]benzonitrile] |
| 100 to 1000 | COc1c(C#N)ccc(OC(C)C(F)(F)F)c1C(=O)N1CCc2nn(C)cc2C1 (stereo not drawn) [Example 204, 2-Methoxy-3-{2-methyl-2H 4H 5H 6H 7H-pyrazolo[4,3-c]pyridine-5-carbonyl}-4-[(1 1 1-trifluoropropan-2-yl)oxy]benzonitrile] |
| 100 to 1000 | COc1cccc(-n2cc3c(n2)CCN(C(=O)c2c(OC(C)C(F)(F)F)ccc(C#N)c2Cl)C3)c1 (stereo not drawn) [Example 205, 2-Chloro-3-[2-(3-methoxyphenyl)-2H 4H 5H 6H 7H-pyrazolo[4,3-c]pyridine-5-carbonyl]-4-[(1 1 1-trifluoropropan-2-yl)oxy]benzonitrile] |
| 100 to 1000 | COc1ccc(-n2cc3c(n2)CCN(C(=O)c2c(OC(C)C(F)(F)F)ccc(C#N)c2Cl)C3)cc1 (stereo not drawn) [Example 206, 2-Chloro-3-[2-(4-methoxyphenyl)-2H 4H 5H 6H 7H-pyrazolo[4,3-c]pyridine-5-carbonyl]-4-[(1 1 1-trifluoropropan-2-yl)oxy]benzonitrile] |
